{"source": "patent EP1146895B1", "about": "“THROMBOPOIETIN COMPOSITIONS FOR INCREASING CIRCULATING PLATELETS” (BOARD OF REGENTS, THE UNIVERSITY OF TEXAS SYSTEM, priority 1999, dated 2000)", "key": {"[1]": {"system": "platelets", "assay": "Reversible block of in vitro ADP- and collagen-induced aggregation by second messenger effectors", "assay_type": "cell-based", "conditions": "agonist (ADP, collagen)-induced", "from_the_text": "The reversible inhibition induced by this formulation effectively reduces the development of the platelet storage lesion when platelets are cryopreserved. The following is a brief description of the second messenger pathways manipulated in order to control activation of platelets during storage, and the specific inhibitors used to abrogate the initiation of the respective pathways."}, "[2]": {"system": "recurrent ovarian cancer", "conditions": "800 mg/m^2 without cytokine support, 30 patients (Ozols et al., 1987); cited from earlier work"}, "[3]": {"assay": "Phase I/II carboplatin study: clinical tolerance, adverse events, anti-TPO antibodies", "assay_type": "in vivo, humans"}, "[4]": {"system": "carboplatin-induced thrombocytopenia", "assay": "Phase I/II study of subcutaneous rhTPO prior to and following carboplatin in gynecologic malignancy: hematologic effects", "conditions": "for Number (%) of Patients Requiring Platelet Transfusions: Cycle-1 (Carboplatin) or Cycle-2 (Carboplatin+ rhTPO)", "from_the_text": "Carboplatin is effective in advanced-stage platin-sensitive recurrent disease; however, cumulative thrombocytopenia is frequently dose-limiting. […] During dose-escalation phase, rhTPO was given by S.C. injection as a single dose (0.6, 1.2, 2.4, 3.6 mcg/kg) prior to carboplatin and for four doses following a second cycle of carboplatin. […]\nThe inventor performed a phase I/II study of rhTPO prior to and following carboplatin in 29 patients with advanced gynecologic malignancy. During the dose-escalation phase, rhTPO was administered by subcutaneous injection as a single dose (0.6, 1.2, 2.4, and 3.6 mcg/kg) prior to carboplatin, and for four doses following a second cycle of carboplatin. During dose-expansion phase (n=12). rhTPO was used at the optimal biologic dose only as a secondary prophylaxis for severe thrombocytopenia.\nThe study included two components, a dose-escalation (safety) component and dose-expansion (activity) component using the optimal dose. During the dose-escalation part of this trial, rhTPO was administered as a single dose by subcutaneous injection 3 weeks before chemotherapy in order to evaluate clinical tolerance and the hematopoietic effects of rhTPO alone. […] Thus Cycle- 1 (chemotherapy alone) served as an internal control for each patient for Cycle-2 (chemotherapy with rhTPO).\nAt least three patients were entered at each dose level of rhTPO (0.6, 1.2, 2.4, and 3.6 mcg/m^2/d). […] In the subsequent cycles, rhTPO was used at OBD as a secondary prophylaxis by same schedule [days 2, 4, 6, 8 (n=6)] or by a modified schedule [days -1, 1, 3, 5 (n=6)]. The latter schedule was used to assess whether earlier administration of TPO can further augment the degree of protection.\nPatients received platelet transfusions for severe thrombocytopenia (i.e. platelet count <20,000/mm^3), RBC transfusions for anemia (i.e. hemoglobin [Hb]<8 gm/dL), and antibiotics for neutropenic fever (i.e. temperature ≥38.3°C and absolute neutrophil count <500/mm^3) or when clinically indicated. The use of G-CSF was not allowed during the first two cycles of chemotherapy, but was allowed in the later cycles (3 - 6) only if clinically indicated (i.e. as a secondary prophylaxis in those patients who experienced prolonged neutropenia or delayed neutrophil recovery).\n(§1) Before and during the course of the clinical trial, patients were monitored with complete history, physical examinations, and laboratory tests including complete blood cell counts, serum chemistry, urinalysis, chest X-ray, and electrocardiograph. Blood counts were performed three times a week until the expected nadir period was reached and then daily until the counts had recovered. Serum samples were examined for antibodies reactive to full length TPO three times prior to study and weekly while on study. Positive sera (optical density ratio ≥1.5) were further analyzed by anti-truncated TPO antibody assay, C-mpl blocking assay, and cell-proliferation biologic assay. Patients positive in all assays were considered to be at risk for antibody-induced thrombocytopenia. Bone marrow (BM) aspiration and biopsy were done in all patients before, and one week after rhTPO treatment, and in selected patients at a later time point (day 10 or 14) in the prechemotherapy cycle. Tumor response was evaluated by physical examination, tumor marker (CA-125) evaluation, and imaging studies performed at periodic intervals.\nHematopoietic toxicity from Cycle-1 1 of chemotherapy (no rhTPO) was compared with the results from Cycle-2 (with rhTPO) by means of a paired T test for continuously measured variables."}, "[5]": {"system": "gynecologic malignancy", "assay": "Phase I/II carboplatin study: tumor response", "assay_type": "in vivo, humans", "conditions": "carboplatin AUC 11 with or without rhTPO, 25 evaluable patients", "protocol": "as §1"}, "[6]": {"conditions": "Cycle-1 Carboplatin alone or Cycle-2 Carboplatin + rhTPO, n=27"}, "[7]": {"conditions": "22 patients, C-1 (C) or C-2 (C+T), mean ± SEM"}}}
{"smiles": "N=C(N)NC(=O)c1nc(Cl)c(N)nc1N", "note": "[Amiloride]", "values": [{"measurement": "effect on in vitro aggregation of platelets", "setting": "[1]", "result": "effectively and reversibly blocks"}]}
{"smiles": "Nc1ncnc2c1ncn2[C@@H]1O[C@H](CO)[C@@H](O)[C@H]1O", "note": "[Adenosine]", "values": [{"measurement": "effect on in vitro aggregation of platelets", "setting": "[1]", "result": "reversibly inhibits"}]}
{"smiles": "N.N.O=C([O-])C1(C(=O)[O-])CCC1.[Pt+2]", "note": "[Carboplatin]", "values": [{"measurement": "Major responses", "setting": "[2]", "result": 27, "unit": "%"}, {"measurement": "Fever, number of patients", "setting": "[3]; Cycle-1 Carboplatin alone n=27 or Cycle-2 Carboplatin + rhTPO n=27", "result": 12}, {"measurement": "Anorexia, number of patients", "setting": "[3]; [6]", "result": 14}, {"measurement": "Anorexia, number of patients experiencing grade ≥3 toxicity", "setting": "[3]; [6]", "result": 1}, {"measurement": "Bone pain, number of patients", "setting": "[3]; [6]", "result": 7}, {"measurement": "Chills, number of patients", "setting": "[3]; [6]", "result": 8}, {"measurement": "Constipation, number of patients", "setting": "[3]; [6]", "result": 11}, {"measurement": "Constipation, number of patients experiencing grade ≥3 toxicity", "setting": "[3]; [6]", "result": 2}, {"measurement": "Diarrhea, number of patients", "setting": "[3]; [6]", "result": 8}, {"measurement": "Diarrhea, number of patients experiencing grade ≥3 toxicity", "setting": "[3]; [6]", "result": 1}, {"measurement": "Fatigue, number of patients", "setting": "[3]; [6]", "result": 12}, {"measurement": "Fatigue, number of patients experiencing grade ≥3 toxicity", "setting": "[3]; [6]", "result": 10}, {"measurement": "Headache, number of patients", "setting": "[3]; [6]", "result": 11}, {"measurement": "Headache, number of patients experiencing grade ≥3 toxicity", "setting": "[3]; [6]", "result": 4}, {"measurement": "Mucositis, number of patients", "setting": "[3]; [6]", "result": 4}, {"measurement": "Myalgia, number of patients", "setting": "[3]; [6]", "result": 10}, {"measurement": "Nausea, number of patients", "setting": "[3]; [6]", "result": 18}, {"measurement": "Nausea, number of patients experiencing grade ≥3 toxicity", "setting": "[3]; [6]", "result": 3}, {"measurement": "Vomiting, number of patients", "setting": "[3]; [6]", "result": 12}, {"measurement": "Vomiting, number of patients experiencing grade ≥3 toxicity", "setting": "[3]; Cycle-1 Carboplatin alone, n=27", "result": 1}, {"measurement": "Nadir PLT", "setting": "[4]; 22 patients, all rhTPO doses, C-1 carboplatin alone (C), C-2 carboplatin + rhTPO (C+T), mean ± SEM", "result": "20 ±5 x10^3/mm^3"}, {"measurement": "No. (%) of PTS transfused", "setting": "[4]; 22 patients, C-1 (C) or C-2 (C+T)", "result": "11 (50)"}, {"measurement": "Days PLT <50 × 10^3/mm^3", "setting": "[4]; [7]", "result": "6.3 ±1.0", "unit": "days"}, {"measurement": "Days PLT <100 × 10^3/mm^3", "setting": "[4]; [7]", "result": "10.3 ± 1.3", "unit": "days"}, {"measurement": "Number (%) of Patients Requiring Platelet Transfusions", "setting": "[4]; All Patients (0.6 - 3.6 mcg/kg) n=27", "result": "16 (59%)"}, {"measurement": "Number (%) of Patients Requiring Platelet Transfusions", "setting": "[4]; Optimal Biologic Dose (1.2 mcg/kg) n=16", "result": "12(75%)"}, {"measurement": "incidence of thrombocytopenia requiring platelet transfusions", "setting": "[4]; cycle-1 without rhTPO, secondary prophylaxis patients", "result": "10 of 12"}, {"measurement": "major tumor response", "setting": "[5]", "result": 50, "unit": "%"}]}
